Here are results for 7 compounds from PMC4871480, “A Miniaturized Screen of a Schistosoma mansoni Serotonergic G Protein-Coupled Receptor Identifies Novel Classes of Parasite-Selective Inhibitors” (PLoS Pathogens, 2016).

Assay [1] concerns the target T1, Sm.5HTR (Schistosoma mansoni, UniProt G4V5G4). The assay is described as follows: cell-based. It is filed as cell-based. The conditions noted are these: for potency (IC50) at Sm.5HTR: Fig 7 quadrant. The protocol:
(§1) HEK293 cells (ATCC CRL-1573.3) were cultured in DMEM supplemented with 10% fetal bovine serum (FBS), penicillin (100 units/ml), streptomycin (100 μg/ml), and L-glutamine (290 μg/ml). Cells were transiently transfected (ViaFect, Promega) as per the manufacturer’s protocol at a density of 2x10^6 cells per T-25 cell-culture flask. Cells were transfected with plasmids encoding GloSensor (Promega) and either Sm.5HTR (Smp_126730, GenBank accession number KF444051.1) or Sm.5HTRL (KX150867), bothGPCRs being codon optimized for mammalian expression, or Hs.5HT7a (GenBank accession number NM_000872.4, R&D Systems) subcloned into pCS2(-). Cell culture reagents were from Invitrogen. Epitope tagged constructs were used to verify expression, and untagged constructs used for all luminescence assays.
(§2) For assays performed on adherent cells, HEK-293 cells were transferred one day post transfection to 96 well, solid white plates (Corning, cat # 3917) coated with 0.01% poly-L-lysine (Sigma Aldrich) at a density of 5 x 10^4 cells / well in DMEM supplemented with 1% dialyzed FBS (Gibco). After overnight culture (37°C/5% CO2), media was decanted and replaced with 100μL / well HBSS supplemented with 0.1% BSA, 20mM HEPES (pH 7.4) and GloSensor reagent. Plates were allowed to equilibrate at room temperature for two hours prior to performing luminescence assays (GloMax-Multi Detection System plate reader, Promega). Conditions for individual assays were described as per figure legends. The standard assay to detect changes in cAMP utilized the F22 sensor in media supplemented with IBMX (200μM). Ligands were added at a concentration of 20x per well for experiments (i.e. 5μl of drug solution added to 100μl of cells). […] For the resazurin reduction assay for cellular viability, cells were incubated with resazurin (final concentration, 10μM) and tested ligands with fluorescence measurements (560 nm excitation/590 nm emission) made at 1.5hr intervals.

Another assay deals with T2, Hs.5HT7R (Homo sapiens, UniProt P34969).
T2 construct: host or cells: HEK293 (ATCC CRL-1573.3), transient transfection, pCS2(-) vector
T2 sequence (P34969 1-445 isoform P34969-2): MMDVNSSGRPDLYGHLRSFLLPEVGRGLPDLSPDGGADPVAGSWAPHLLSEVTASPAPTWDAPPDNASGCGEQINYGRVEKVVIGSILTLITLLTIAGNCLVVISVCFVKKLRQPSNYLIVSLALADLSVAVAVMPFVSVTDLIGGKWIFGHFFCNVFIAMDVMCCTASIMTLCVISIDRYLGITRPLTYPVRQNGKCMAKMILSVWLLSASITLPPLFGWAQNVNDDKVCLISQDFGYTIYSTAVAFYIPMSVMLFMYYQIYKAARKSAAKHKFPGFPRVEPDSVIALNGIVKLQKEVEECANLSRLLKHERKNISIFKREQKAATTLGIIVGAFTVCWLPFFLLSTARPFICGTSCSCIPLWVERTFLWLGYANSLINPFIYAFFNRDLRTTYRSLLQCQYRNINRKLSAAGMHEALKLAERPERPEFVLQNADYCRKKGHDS
The assay is described as follows: GloSensor cAMP assay in HEK293 cells expressing Hs.5HT7R. It is filed as cell-based. Particulars: for potency (IC50) at Hs.5HT7R: Fig 7 quadrant. The protocol: as §1, §2

The test system of assay [2] is S. mansoni schistosomules. The assay is described as follows: Schistosomule contractility assay. It is filed as in vivo, Schistosoma mansoni. The conditions noted are these: for IC50: read-out: IC50 (inhibition of 5-HT evoked contractions). The protocol: Biomphalaria glabrata (M-line) snails exposed to Schistosoma mansoni miracidia (Strain PR-1) were obtained from BEI Resources (Cat. number NR-21961) and cercaria were shed following exposure to light (1.5 hours). Cercaria were manually transformed into schistosomula by vortexing (3 x 45 seconds, each separated by 3 minutes on ice) and tails were removed by gradient centrifugation (24ml Percoll, 4ml 10X EMEM, 1.5ml penicillin-streptomycin, 1ml of 1M HEPES in 0.85% NaCl, 9.5ml distilled water) at 500g/15min at 4°C. Supernatant containing tails was discarded, and schistosomules were resuspended in Basch media and incubated (37°C, 5% CO2) overnight before conducting mobility assays. For contractility experiments, somules were incubated in 5-HT free Basch media to resolve a basal contractility rate. […] Schistosomules were incubated in 24 well plates (~200 schistosomules / 0.5mL media per well) for 30 minutes (37°C/5% CO2) prior to acquiring videos of schistosome movement (1 minute recordings / well) using a Nikon Coolpix 5700 camera affixed to a Nikon Eclipse TS100 microscope (10x objective). The WrmTrck plugin for ImageJ was used to quantify worm mobility. Briefly, the major axis of each schistosomule body length was extracted from the raw output of WrmTrck and an average length was determined for the duration of the recording. Contractions were quantified by determining the number of episodes during which the worm body length deviated from the average by over 20%. S. mansoni protocols were approved by the Iowa State University Institutional Biosafety Committee.

A further assay concerns adult schistosomes. The assay can be described thus: Adult schistosome mobility assay. The class given is in vivo, Schistosoma mansoni. The conditions noted are these: for effect on 5-HT evoked increases in worm movement / effect on basal movement of adult worms / time to recovery of movement after drug removal, male worms: 10μM; for effect on 5-HT evoked increases in worm movement / time to recovery of movement after drug removal, male worms: 5-HT 100μM; for effect on basal movement of adult worms: worms at rest; for time to recovery of movement after drug removal, male worms: 2 hour exposure. The protocol:
Female Swiss Webster mice exposed to Schistosoma mansoni cerceria (Strain PR-1) at 5–7 weeks old were obtained from BEI Resources (Cat. number NR-34792) and sacrificed 6–8 weeks post-infection. Mature S. mansoni were harvested from the mesenteric vasculature by portal perfusion. Briefly, mice were anesthetized in a CO2 chamber and sacrificed by cervical dislocation. Mice were perfused with sodium citrate (25mM) and adult schistosomes were harvested from the mesenteric veins. Schistosomes were washed in RPMI media containing penicillin (1000 units/mL), streptomycin (1000 μg/mL) and 25mM HEPES, then transferred to RPMI media supplemented with 2mM glutamine and 5% heat inactivated FBS. Worms were incubated overnight at 37°C, 5% CO2 before conducting assays. Recordings of adult schistosome movement were captured using a Zeiss Discovery v20 stereomicroscope and a QiCAM 12-bit cooled color CCD camera. Videos were acquired at a rate of four frames per second for one minute. Recordings of female worms were acquired at 7.6x magnification, 30 mm field of view and recordings of male worms were acquired at a 5.1x magnification, 45 mm field of view. Analysis was performed in ImageJ as described previously. Briefly, image (.tiff) stacks of each recording were imported and processed by converting to binary format so that pixel measurements represent area of the worms’ bodies. Mobility was quantified by measuring the difference in pixels resulting from subtracting the value of one frame (n) from those of the next frame in the sequence (n+1). This difference was expressed as a percentage of the pixels in the initial frame (n), providing a measurement of the worms’ movement over a period of 0.25 seconds. This calculation was performed for each frame in the video, and the results were averaged over the length of the recording. Values reported represent the mean (±) standard error of at least three independent experiments. Animal work was carried out with the oversight and approval of the Laboratory Animal Resources facility at the Iowa State University College of Veterinary Medicine.

Assay [3] deals with T1, Sm.5HTR. The assay can be described thus: Antagonist washout (inactivating antagonist) GloSensor assay on suspension cells. The class given is cell-based. The protocol: To test putative irreversible antagonists, assays on suspension cells were performed one day post transfection. […] Compounds were added at 10 μM, and after 30 minute incubation at room temperature cells were centrifuged (300 RCF, 5 minutes) and resuspended in fresh media. This wash step was repeated, and cells were resuspended in HBSS supplemented with 0.1% BSA, 20mM HEPES and GloSensor reagent. Cells were gently rotated to prevent aggregation and settling over the course of the two hour equilibration period, after which time they were transferred to 96 well plates at a density of 8 x 10^4 cells / 100μL per well and assays described for adherent cells.

In another assay the test system is regenerating planarians. Also noted: method as in PMID 24586156. Particulars: cited from earlier work.
In another assay the target is Sm.5HTRL (Schistosoma mansoni, UniProt A0A173FEI8). The assay is described as follows: GloSensor cAMP assay in HEK293 cells expressing Sm.5HTRL. The conditions noted are these: for inhibition of 5-HT evoked cAMP generation through Sm.5HTRL: antagonists 10μM, 5-HT EC80 dose. The class given is cell-based. The protocol:
as §1, §2
(In general: cAMP levels reflect the balance of adenylyl cyclase and phosphodiesterase activity.)

Entries after “also recorded” stand apart in the source; their conditions may differ. Read-outs that look alike come from different tables or passages of the source.

T1 sequence (G4V5G4 entry or part of it): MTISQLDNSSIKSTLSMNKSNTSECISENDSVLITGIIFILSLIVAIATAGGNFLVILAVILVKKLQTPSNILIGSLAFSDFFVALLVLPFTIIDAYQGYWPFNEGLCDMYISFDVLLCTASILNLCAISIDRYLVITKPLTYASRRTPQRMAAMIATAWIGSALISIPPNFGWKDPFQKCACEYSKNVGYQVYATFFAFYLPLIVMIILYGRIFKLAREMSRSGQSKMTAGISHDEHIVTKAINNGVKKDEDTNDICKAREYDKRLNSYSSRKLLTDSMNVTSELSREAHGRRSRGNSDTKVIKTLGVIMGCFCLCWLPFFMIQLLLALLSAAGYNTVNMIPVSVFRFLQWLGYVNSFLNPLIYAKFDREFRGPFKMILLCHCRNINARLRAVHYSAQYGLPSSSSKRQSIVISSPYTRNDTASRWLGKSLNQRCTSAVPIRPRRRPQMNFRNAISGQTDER
Sm.5HTRL, sequence (A0A173FEI8 entry or part of it): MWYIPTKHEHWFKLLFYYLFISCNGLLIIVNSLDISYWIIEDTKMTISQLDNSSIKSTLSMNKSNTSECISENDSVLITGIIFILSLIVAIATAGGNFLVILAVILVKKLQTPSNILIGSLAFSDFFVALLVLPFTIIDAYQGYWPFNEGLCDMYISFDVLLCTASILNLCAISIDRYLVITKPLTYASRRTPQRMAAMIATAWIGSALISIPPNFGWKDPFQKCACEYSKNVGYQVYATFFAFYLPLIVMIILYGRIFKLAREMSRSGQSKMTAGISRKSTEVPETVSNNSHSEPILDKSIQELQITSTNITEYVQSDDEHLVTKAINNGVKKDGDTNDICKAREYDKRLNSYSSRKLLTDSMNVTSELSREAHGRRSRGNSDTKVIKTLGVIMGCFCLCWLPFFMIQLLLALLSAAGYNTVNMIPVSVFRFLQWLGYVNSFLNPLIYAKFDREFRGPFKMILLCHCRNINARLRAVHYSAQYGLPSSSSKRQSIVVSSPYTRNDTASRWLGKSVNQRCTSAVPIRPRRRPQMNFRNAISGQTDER

As a reminder, the IC50 is the concentration needed to halve the response being measured. For the compound `COc1ccc2cc1Oc1ccc(cc1)C[C@H]1c3cc(c(OC)cc3CCN1C)Oc1c(OC)c(OC)cc3c1[C@H](C2)N(C)CC3` [tetrandrine], on Sm.5HTR [1], the “potency (IC50) at Sm.5HTR” value is recorded as “sub-μM potency”. Moreover, the “potency (IC50) at Hs.5HT7R” value on Hs.5HT7R is given as “supra-μM potency”. The IC50 in assay [2] (Schistosoma mansoni) is at most 1000 nM. Besides, in the assay on adult schistosomes, the “effect on 5-HT evoked increases in worm movement” value (from here on “effect on 5-HT evoked increases”) is on record as “lacked an inhibitory effect” and the “effect on basal movement of adult worms” value was “enhanced movements of isolated female worms”.

For the compound `O=S(=O)(c1ccccc1)c1cnc2c(N3CCNCC3)cccc2c1` [SB742457], the “activity at Sm.5HTR” value on Sm.5HTR [1] (antagonist/modulator screening) is recorded as “completely lacked activity; also recorded: modest effects”. Also, the “inhibition of Hs.5HT7R” value against Hs.5HT7R (Fig 4) was “potent inhibitors”.

Regarding `CC(C)C[C@H]1C(=O)N2CCC[C@H]2[C@]2(O)O[C@](NC(=O)[C@@H]3C=C4c5cccc6[nH]c(Br)c(c56)C[C@H]4N(C)C3)(C(C)C)C(=O)N12` [bromocriptine], the “ligand type at Sm.5HTR” value at Sm.5HTR [1] (Fig 5F) is on record as “Antagonist”. Further, at Sm.5HTR [1], the “potency (IC50) at Sm.5HTR” value is recorded as “sub-μM potency”. In addition, at Sm.5HTR [1] (KB (affinity constant, Schild regression), right-shift of 5-HT dose-response), the Kb stood at 410 nM. The “selectivity for the parasitic 5-HT receptor” value at Sm.5HTR [1] (Sm.5HTR over Hs.5HT7R) is ~ 10 fold. In addition, the “inhibition of 5-HT evoked cAMP generation” value at Sm.5HTR [1] (at higher concentrations (>10μM)) is “almost complete inhibition”. Besides, the “agonist efficacy at Sm.5HTR” value on Sm.5HTR [1] (dose response, Fig 5A) was “no efficacy”. At Sm.5HTR [1] (drug 10μM, preincubation), the “acute inhibition of 5-HT (10μM) response at Sm.5HTR” value was “acutely inhibited”. The Kb on Sm.5HTR [1] (pKB ± S.E.M, Schild regression) is 407 nM. Further, the “potency (IC50) at Hs.5HT7R” value on Hs.5HT7R is “supra-μM potency”. At Sm.5HTR [3] (10μM for 30 mins, washout, 5-HT response 1hr later), the “inhibition of Sm.5HTR after antagonist wash-out” value is listed as “long-lasting inhibition”. Further, the “potency for Sm.5HTR inhibition after washout” value on Sm.5HTR [3] (titration, Fig 6E) is on record as “most potent”. The IC50 in assay [2] (Schistosoma mansoni) was at most 1000 nM. Also, in the assay on adult schistosomes, the “effect on 5-HT evoked increases” value is “inhibited”; the “time to recovery of movement after drug removal, male worms” value was 24 h; the “effect on basal movement of adult worms” value is “markedly inhibited worm movements at rest”. Moreover, in the assay with regenerating planarians, the “concentration evoking bipolarity, fold less than PZQ” value is 100 fold.

As a reminder, the EC80 is the point of the concentration-response curve where the effect stands at 80%. For the compound `NCCc1c[nH]c2ccc(O)cc12` [5-HT, Serotonin], the EC50 on Sm.5HTRL (F22 sensor with IBMX, read-out: EC50 (cAMP generation, Sm.5HTRL)) came out at 200 ± 30 nM. The EC80 on Sm.5HTRL (HEK293) came out at 800 nM. Besides, the “greater sensitivity of Sm.5HTRL vs Sm.5HTR” value on Sm.5HTRL (ratio of 5-HT EC50 values) is reported as ~ 10 fold. The “effect on basal contractile rate of schistosomules” value in assay [2] (exogenous addition, dose-dependent) is on record as “increase in the basal contractile rate”. For the same compound, in the assay on adult schistosomes (5-HT application), the “effect on movement of unpaired male and female worms” value is “significantly increased the movement”.

Take `CNCC[C@@H](Oc1ccccc1C)c1ccccc1` [atomoxetine]: at Sm.5HTR [1], the “selectivity for Sm.5HTR over Hs.5HT7R” value was “clear selectivity for Sm.5HTR; also recorded: preferential selectivity toward Sm.5HTR”. Also, the “inhibition of 5-HT evoked cAMP generation through Sm.5HTRL” value at Sm.5HTRL is recorded as “inhibited 5-HT evoked cAMP generation”.

As a reminder, the inhibition is the change of the read-out against control, counted positive when it falls. Turning to `COc1cc2c(cc1OC)C1CC(=O)C(CC(C)C)CN1CC2` (stereo not drawn) [tetrabenazine], at Sm.5HTR [1], the “potency (IC50) at Sm.5HTR” value was “sub-μM potency”. The “GPCR inhibition profile compared with rotundine” value at Sm.5HTR [1] (Sm.5HTR vs Hs.5HT7R, Fig F in S1 Text) is reported as “selectivity for Sm.5HTR retained”. Also, the “potency (IC50) at Hs.5HT7R” value at Hs.5HT7R is recorded as “supra-μM potency”. The inhibition at 100 µM in assay [2] (Schistosoma mansoni, read-out: inhibition of 5-HT evoked contractility) was about 50%.

Regarding `COc1cc2c(cc1OC)[C@@H]1Cc3ccc(OC)c(OC)c3CN1CC2` [rotundine], on Sm.5HTR [1], the midpoint of inhibition, the IC50, lay at 701 ± 207 nM; the “selectivity for Sm.5HTR over Hs.5HT7R” value is given as “clear selectivity for Sm.5HTR; also recorded: clear bias toward Sm.5HTR”; the “potency (IC50) at Sm.5HTR” value was “sub-μM potency”. Besides, the IC50 against Sm.5HTR [1] (IC50 (antagonism of 5-HT evoked cAMP generation), 5-HT at EC80) was about 700 nM. For the same compound, the “inhibition of 5-HT evoked cAMP generation through Sm.5HTRL” value on Sm.5HTRL was “inhibited 5-HT evoked cAMP generation”. For the same compound, the “potency (IC50) at Hs.5HT7R” value at Hs.5HT7R is “supra-μM potency”. The “effect on Hs.5HT7” value on Hs.5HT7R (concentrations up to 50μM) is given as “lacking any effect”. Besides, in assay [2] (Schistosoma mansoni), the IC50 is at most 1000 nM. In the assay with adult schistosomes, the “effect on 5-HT evoked increases” value is on record as “inhibited”; the “time to recovery of movement after drug removal, male worms” value was at most 3 h; the “effect on basal movement of adult worms” value is given as “markedly inhibited worm movements at rest”.
